# Measured values: US10017480B2, “Compounds having a selective PDE4D inhibiting activity” (UNIVERSITÂ DEGLI STUDI DI GENOVA, priority 2014, dated 2018)
# Columns and labels:
# PDE4D1 = PDE4D1 (Homo sapiens, UniProt Q08499); assay: PDE4D1 enzyme inhibition (IMAP); format: biochemical
# PDE4D2 = PDE4D2 (Homo sapiens, UniProt Q08499); assay: PDE4D2 enzyme inhibition (IMAP); format: biochemical
# PDE4D3 = PDE4D3 (Homo sapiens, UniProt Q08499); assay: PDE4D3 enzyme inhibition (IMAP); format: biochemical
# PDE4D3, sequence (Q08499 1-673 isoform Q08499-2): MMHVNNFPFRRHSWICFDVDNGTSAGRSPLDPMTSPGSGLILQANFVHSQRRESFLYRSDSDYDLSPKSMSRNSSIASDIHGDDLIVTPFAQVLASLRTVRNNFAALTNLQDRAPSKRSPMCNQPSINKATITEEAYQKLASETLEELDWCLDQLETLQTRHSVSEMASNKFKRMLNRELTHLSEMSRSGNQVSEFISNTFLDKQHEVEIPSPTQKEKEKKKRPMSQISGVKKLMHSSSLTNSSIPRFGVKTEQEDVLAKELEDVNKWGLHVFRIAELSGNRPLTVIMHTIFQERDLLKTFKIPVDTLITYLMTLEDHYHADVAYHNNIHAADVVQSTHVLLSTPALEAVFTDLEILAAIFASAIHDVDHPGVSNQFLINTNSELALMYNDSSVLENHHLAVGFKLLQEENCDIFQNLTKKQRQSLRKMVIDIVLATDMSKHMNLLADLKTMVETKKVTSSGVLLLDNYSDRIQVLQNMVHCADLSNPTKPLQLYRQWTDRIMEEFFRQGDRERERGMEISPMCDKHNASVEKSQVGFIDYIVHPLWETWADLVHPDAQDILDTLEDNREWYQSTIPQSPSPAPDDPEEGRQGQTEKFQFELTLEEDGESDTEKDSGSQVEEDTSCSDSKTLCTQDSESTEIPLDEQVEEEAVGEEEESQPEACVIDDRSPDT
# Procedure: (§1) Compound's evaluation on PDE4D3, PDE4A4, PDE4B2 and PDE4C2 enzyme assays were performed by Scottish Biomedical (Glasgow, Scotland, UK) using recombinant human PDE enzymes expressed in a baculoviral system. The preliminary screening assays were performed by the IMAP technology (Molecular Devices), which is based on the high affinity binding of phosphate by immobilized metal coordination complexes on nanoparticles. The binding reagent complexes with phosphate groups on nucleotide monophosphate generated from cyclic nucleotides (cAMP) through phosphodiesterases. With fluorescence polarization detection, binding causes a change in the rate of the molecular motion of the phosphate bearing molecule and results in an increase in the fluorescence polarization value observed for the fluorescent label attached to the substrate. […] All compounds were solved in DMSO at 10^−2 M concentration and then diluted with water to the final suitable concentrations. All synthesized compounds were tested preliminary on PDE4D3 at 10^−5 M concentration, in duplicate. Results are expressed as a percent inhibition of control activity (see table 1).
# IC50 values are reported at μM concentration in table 1. […] The results are reported (as percent of inhibition at 10 μM concentration) in Table 1.
# PDE4A4 = PDE4A4 (Homo sapiens, UniProt P27815); assay: PDE4A4 enzyme inhibition (IMAP); format: biochemical; settings: 10 μM
# PDE4A4, sequence (P27815 whole entry): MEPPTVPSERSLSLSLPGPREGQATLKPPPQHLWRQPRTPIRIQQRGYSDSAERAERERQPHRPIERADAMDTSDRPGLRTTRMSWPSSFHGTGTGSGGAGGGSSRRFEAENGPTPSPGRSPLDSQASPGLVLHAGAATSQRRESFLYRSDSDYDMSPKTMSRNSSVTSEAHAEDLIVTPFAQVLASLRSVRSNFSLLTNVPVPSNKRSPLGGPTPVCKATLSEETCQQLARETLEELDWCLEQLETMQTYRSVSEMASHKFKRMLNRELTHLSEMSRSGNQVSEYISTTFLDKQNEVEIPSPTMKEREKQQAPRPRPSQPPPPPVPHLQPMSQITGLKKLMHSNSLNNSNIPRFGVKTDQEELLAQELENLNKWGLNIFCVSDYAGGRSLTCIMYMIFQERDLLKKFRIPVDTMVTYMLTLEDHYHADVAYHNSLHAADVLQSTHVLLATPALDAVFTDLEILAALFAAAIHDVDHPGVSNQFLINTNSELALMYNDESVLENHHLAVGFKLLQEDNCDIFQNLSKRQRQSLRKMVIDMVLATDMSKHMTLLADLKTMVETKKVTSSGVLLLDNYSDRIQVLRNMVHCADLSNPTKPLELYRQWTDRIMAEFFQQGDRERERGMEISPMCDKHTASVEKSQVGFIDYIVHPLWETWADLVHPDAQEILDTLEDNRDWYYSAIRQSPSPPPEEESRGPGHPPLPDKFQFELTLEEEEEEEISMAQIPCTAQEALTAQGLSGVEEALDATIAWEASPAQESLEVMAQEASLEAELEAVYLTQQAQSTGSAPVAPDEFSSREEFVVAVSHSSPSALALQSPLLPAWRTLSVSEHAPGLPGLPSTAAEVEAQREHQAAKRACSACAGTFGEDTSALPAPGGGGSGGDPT
# Procedure: as §1
# (§2) The IC50 values obtained for the reference compounds are within accepted limits of historic averages obtained (0.5 log unit). IC50 values are reported at μM concentration in table 1. […] The results are reported (as percent of inhibition at 10 μM concentration) in Table 1.
# PDE4B2 = biological target: T1, PDE4B2 (Homo sapiens, UniProt Q07343); assay: PDE4B2 enzyme inhibition (IMAP); format: biochemical; settings: 10 μM
# T1 construct: purchased Scottish Biomedical (Glasgow, Scotland, UK); host or cells: baculoviral system
# T1 sequence (Q07343 1-564 isoform Q07343-2): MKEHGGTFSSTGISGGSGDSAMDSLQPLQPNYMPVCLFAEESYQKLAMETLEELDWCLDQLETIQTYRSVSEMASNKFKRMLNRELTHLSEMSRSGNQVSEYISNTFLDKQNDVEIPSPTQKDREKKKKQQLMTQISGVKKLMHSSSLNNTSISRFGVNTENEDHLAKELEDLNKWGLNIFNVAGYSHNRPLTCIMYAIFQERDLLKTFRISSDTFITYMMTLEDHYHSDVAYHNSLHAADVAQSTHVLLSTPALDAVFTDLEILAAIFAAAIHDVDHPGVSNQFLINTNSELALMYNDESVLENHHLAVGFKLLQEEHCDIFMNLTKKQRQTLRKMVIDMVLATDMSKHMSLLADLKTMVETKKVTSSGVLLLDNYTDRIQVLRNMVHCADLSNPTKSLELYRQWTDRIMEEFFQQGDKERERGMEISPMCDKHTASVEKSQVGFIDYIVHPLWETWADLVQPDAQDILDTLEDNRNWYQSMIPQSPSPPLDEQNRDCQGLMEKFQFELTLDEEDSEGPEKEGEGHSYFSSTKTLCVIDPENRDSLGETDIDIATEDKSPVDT
# Procedure: as §1, §2
# PDE4C2 = biological target: T2, PDE4C2 (Homo sapiens, UniProt Q08493); assay: PDE4C2 enzyme inhibition (IMAP); format: biochemical
# T2 construct: purchased Scottish Biomedical (Glasgow, Scotland, UK); host or cells: baculoviral system
# T2 sequence (Q08493 107-712): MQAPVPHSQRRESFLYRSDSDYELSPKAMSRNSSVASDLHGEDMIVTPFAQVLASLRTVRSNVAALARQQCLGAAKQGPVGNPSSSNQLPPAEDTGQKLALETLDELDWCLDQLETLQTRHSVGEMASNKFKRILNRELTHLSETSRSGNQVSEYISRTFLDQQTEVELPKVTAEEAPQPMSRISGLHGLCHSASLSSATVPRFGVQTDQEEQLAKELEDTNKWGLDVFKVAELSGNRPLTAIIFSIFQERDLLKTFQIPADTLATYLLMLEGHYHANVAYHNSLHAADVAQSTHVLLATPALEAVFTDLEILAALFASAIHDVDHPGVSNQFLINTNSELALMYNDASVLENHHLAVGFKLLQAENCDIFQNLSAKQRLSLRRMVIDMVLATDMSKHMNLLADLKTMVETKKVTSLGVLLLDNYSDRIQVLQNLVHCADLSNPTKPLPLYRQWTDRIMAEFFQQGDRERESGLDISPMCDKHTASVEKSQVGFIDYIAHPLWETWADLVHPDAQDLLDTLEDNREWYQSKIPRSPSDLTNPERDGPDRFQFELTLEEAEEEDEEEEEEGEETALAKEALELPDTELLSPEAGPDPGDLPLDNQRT
# Procedure: as §1, §2
# [1] = Cytotoxicity, lactate-dehydrogenase release; format: cell-based; settings: human, HTLA human neuronal cells
# Procedure: To evaluate the preliminary toxic profile of the molecule XVIIIa, we performed cytotoxicity and genotoxicity assays on human neuronal cells (HTLA). For the cytotoxic potential, we analyzed the lactate-dehydrogenase release in cells exposed for 24 hours to high concentrations (100 μM) of XVIIIa or GEBR-7b (lead compound—Bruno et al, Br. J. Pharm., 2011, 164:2054).
# HTLA cells = assay: Genotoxicity, Western blot of γ-H2AX; format: cell-based, human; settings: 100 μM
# Description: To evaluate the genotoxic potential of XVIIIa and GEBR-7b, we analyzed the phosphorylation of the chromatin-bound histone H2AX (γ-H2AX), which is a quantitative marker for the DNA damage response at the site of double-strand breaks.
# The H2AX signal represents the internal loading control.
# [2] = tested on: extracellular cAMP in the hippocampus of freely moving rats; assay: In vivo cAMP-enhancing potential, intracerebral microdialysis
# Procedure: The in vivo effects of XVIIIa on extracellular cAMP levels in the hippocampus of freely moving rats were analyzed by means of intracerebral microdialysis.
# However, when the PDE4D inhibitor was infused at the concentration of 100 μM, a marked cAMP response could be observed (40-80% over basal values) as reported in FIG. 3. The effects of XVIIIa were similar to those previously reported for the PDE4D inhibitor GEBR-7b (lead compound; data taken from Bruno et al., Br. J. Pharmacol. 2011, 164, 2054-2063).
# XVIIIa or GEBR-7b were administered through the probe after 3 consecutive control samples had been collected and were present in the infusion fluid for the time indicated by the horizontal empty bar. Data are expressed as percentages of the mean basal value (defined 100%) that was determined by averaging the cAMP content in the three fractions collected before drug treatment. Each point represents the mean±SEM for 3-6 different experiments.
# [3] = tested on: hippocampal slices from Tg2576 mice and WT littermates; assay: Electrophysiological study, LTP in hippocampal slices; settings: 2 μM, bath, 20 minutes before theta burst stimulation
# Procedure: Compound XVIIIa was tested to determine whether PDE4D inhibition can revert the damage of synaptic function following Aβ elevation in Tg2576 mice.
# All experiments were performed with approval of the Columbia University IACUC Committe. The animals were 12 month old single transgenic mice expressing the human APP mutation (K670N,M671L) (a.k.a. Tg2576), as well as their WT littermates.
# Slice recordings were performed as described previously (Trinchese et al, Ann Neurol 2004). Briefly, 400-μm slices were cut with a tissue chopper and maintained in an interface chamber at 29° C. for 90 minutes prior to recording. CA1 fEPSPs were recorded by placing both the stimulating and the recording electrodes in CA1 stratum radiatum. Basal synaptic transmission was assayed either by plotting the stimulus voltages against slopes of fEPSP. For LTP experiments, a 10-minute baseline was recorded every minute at an intensity that evokes a response approximately 35% of the maximum evoked response. Baseline was followed by a 20 minute perfusion with the compound prior to eliciting LTP using θ-burst stimulation (4 pulses at 100 Hz, with the bursts repeated at 5 Hz, and each tetanus including 3 ten-burst trains separated by 15 seconds). […]
# [4] = tested on: forskolin (FSK)-induced cAMP in neuronal cultured cells; assay: In vitro cAMP-enhancing potential (EIA); settings: 100 μM
# [5] = Pharmacokinetic analysis, plasma and brain
# [6] = male, BALB/c, mouse, brain, sc, 10 mg/kg
# [7] = male, BALB/c, mouse, plasma, sc, 10 mg/kg
# PDE4D1, sequence (Q08499 1-584 isoform Q08499-4): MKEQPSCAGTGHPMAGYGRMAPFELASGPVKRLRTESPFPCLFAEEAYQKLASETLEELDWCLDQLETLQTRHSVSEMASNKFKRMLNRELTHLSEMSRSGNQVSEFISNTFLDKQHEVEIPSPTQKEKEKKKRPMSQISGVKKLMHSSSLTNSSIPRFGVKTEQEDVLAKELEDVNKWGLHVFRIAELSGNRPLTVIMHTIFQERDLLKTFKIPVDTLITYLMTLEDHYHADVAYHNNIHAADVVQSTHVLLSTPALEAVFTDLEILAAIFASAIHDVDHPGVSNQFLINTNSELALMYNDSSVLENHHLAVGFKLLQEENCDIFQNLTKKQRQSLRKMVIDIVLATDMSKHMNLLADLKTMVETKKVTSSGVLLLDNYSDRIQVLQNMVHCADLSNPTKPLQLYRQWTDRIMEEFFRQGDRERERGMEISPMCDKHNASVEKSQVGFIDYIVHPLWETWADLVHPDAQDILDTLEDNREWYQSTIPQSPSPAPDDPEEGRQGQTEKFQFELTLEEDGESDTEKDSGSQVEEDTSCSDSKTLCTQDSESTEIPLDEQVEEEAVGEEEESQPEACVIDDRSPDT
# PDE4D2, sequence (Q08499 303-809 limits assumed): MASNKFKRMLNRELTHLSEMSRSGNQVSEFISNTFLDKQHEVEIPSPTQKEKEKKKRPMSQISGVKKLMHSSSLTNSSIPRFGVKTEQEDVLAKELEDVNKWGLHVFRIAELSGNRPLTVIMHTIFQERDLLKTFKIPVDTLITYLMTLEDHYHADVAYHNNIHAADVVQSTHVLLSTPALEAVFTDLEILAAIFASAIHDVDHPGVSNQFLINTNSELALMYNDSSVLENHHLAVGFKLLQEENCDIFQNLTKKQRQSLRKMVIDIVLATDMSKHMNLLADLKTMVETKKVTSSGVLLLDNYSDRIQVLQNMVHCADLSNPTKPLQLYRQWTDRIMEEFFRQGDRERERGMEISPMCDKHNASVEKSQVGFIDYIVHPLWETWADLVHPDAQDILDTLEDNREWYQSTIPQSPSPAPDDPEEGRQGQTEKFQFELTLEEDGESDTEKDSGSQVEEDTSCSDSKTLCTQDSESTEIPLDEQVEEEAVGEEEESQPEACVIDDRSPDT
structure (smiles),measurement,setting,value
"COc1ccc(-c2ccn(CC(O)CN3CCOCC3)n2)cc1OC1CCCC1 (stereo not drawn) [XVIIIa, 1-{3-[3-(Cyclopentyloxy)-4-methoxyphenyl]-1H-pyrazol-1-yl}-3-morpholin-4-ylpropan-2-ol dihydrocloride]",PDE4D1 % inib at 10 μM,PDE4D1,34%
same,PDE4D2 % inib at 10 μM,PDE4D2,28%
same,PDE4D3 % inib at 10 μM,"PDE4D3; 10 μM, in duplicate",68%
same,IC50,PDE4D3; five concentrations 10^−8-10^−4 M,7.6 µM
same,PDE4A4 % inib at 10 μM,PDE4A4,22%
same,PDE4B2 % inib at 10 μM,PDE4B2,18%
same,PDE4C2 % inib at 10 μM,PDE4C2,11%
same,"cytotoxicity at 24 h, 100 µM",[1],3.3 ± 0.4%
same,DNA damage (γ-H2AX),HTLA cells,not observed
same,hippocampal extracellular cAMP,[2]; 30 μM by reverse dialysis,"slight, though not significant, increase"
same,hippocampal extracellular cAMP response,[2]; 100 μM infused,40-80 % over basal values
same,LTP in WT littermates,[3],without affecting LTP
same,LTP in hippocampal slices from 12 month-old Tg mice,[3],rescued the defect in LTP
same,"accumulation of forskolin (FSK)-induced cAMP, fold induction","[4]; 10 min pre-treatment, then 1 μM FSK 20 min",3 fold
same,basal cAMP levels,[4]; without FSK,without affecting the basal cAMP levels
same,AUC0-t,"[5]; brain, male BALB/c mice, 10 mg/kg subcutaneously",812 ng·h/g
same,Cmax,[5]; [6],936 ng/g
same,Tmax,[5]; [6],10.2 min
same,half-life,[5]; [6],32.4 min
same,Kp,"[5]; male, BALB/c, mouse, in vivo, sc, 10 mg/kg",0.75
same,AUC0-t,[5]; [7],1890 ng·h/mL
same,Cmax,[5]; [7],2160 ng/mL
same,Tmax,[5]; [7],10.2 min
same,half-life,[5]; [7],49.2 min
